Experimental findings from US20050250677A1, “Glycopeptide antibiotic derivatives” (priority 2002, published 2005) are described below.

Series [1] concerns human lymphocyte CEM. As to the kind of experiment: Cytostatic activity assay, CEM cells. In kind it is cell-based. To be noted: read-out: IC50 CEM (compound concentration required to inhibit tumor cell proliferation by 50%).
Series [2] relates to murine leukemia L1210. As to the kind of experiment: Cytostatic activity assay, L1210 cells. It counts as cell-based. The note with it: read-out: IC50 L1210 (compound concentration required to inhibit tumor cell proliferation by 50%).
In series [3] the test system is FCK cells.
For series [4], the system named is FCV. As to the kind of experiment: Feline corona virus assay in Feline Crandel kidney cells (MTS). It counts as cell-based. The note with it: for EC50: FCV in FCK cells, read-out: EC50 FCV. As to the method: Feline Crandel kidney cells were seeded in 96-well microtiter plates at 24,000 cells/well. Then, 24 hrs later, an appropriate inoculum of FCV is added together with 5-fold dilutions of the test compounds. After 4 days, a MTS/PMS solution was added to each well. Following a 90 min incubation period at 37° C., the optical density of the wells was read at 498 nm in a microplate reader.

The subject of series [5] is HIV-1 (IIIB). Kind of series: Inhibition of HIV-1 (IIIB)-induced cytopathicity (giant cell formation) in CEM cells. In kind it is cell-based. The method, then:
(§1) A variety of glycopeptide antibiotic derivatives of vancomycin, eremomycin and teicoplanin including their aglycon derivatives were evaluated for their inhibitory activity against HIV-1 (IIIB) and HIV-2(ROD) in CEM cell cultures.
A general note: Protection from cytopathic effect is a common read-out in antiviral testing.

The test system of series [6] is Vero cells. The note with it: read-out: CC50 Vero.
In series [7] the test system is human lymphocyte Molt4/clone 8. Kind of series: Cytostatic activity assay, Molt4/clone 8 cells. In kind it is cell-based. The note with it: read-out: IC50 Molt4/C8 (compound concentration required to inhibit tumor cell proliferation by 50%).
Series [8] deals with HIV-2(ROD). As to the kind of experiment: Inhibition of HIV-2 (ROD)-induced cytopathicity (giant cell formation) in CEM cells. In kind it is cell-based. The method, then: as §1
In series [9] the test system is SARS virus (strain Frankfurt-1). As to the kind of experiment: microbe, parasite or virus in culture. In kind it is cell-based, human corona (SARS) virus. The note with it: SARS virus in Vero cells; read-out: EC50 SARS virus.
The test system of series [10] is VZV (wild-type strains). Kind of series: Anti-VZV assay (wild-type strains): virus-induced cytopathicity in HEL cell cultures. To be noted: HEL cell cultures. In kind it is cell-based, varicella-zoster virus.
Series [11] concerns HEL cells.
Series [12] deals with HEL cells. The note with it: read-out: CC50 (HEL), HEL cells.
Series [13] relates to CMV. As to the kind of experiment: Anti-CMV assay: virus-induced cytopathicity in HEL cell cultures.
[14] abbreviates: HIV-1 (IIIB), CEM cell cultures, read-out: EC50 against HIV-1.
The mark [15] stands for this setting: read-out: EC50 HIV-2 (concentration required to inhibit HIV-induced giant cell formation by 50%), HIV-2, CEM cell cultures.
Where [16] appears, read: VZV strain OKA, read-out: EC50 VZV (OKA).
[17] abbreviates: VZV strain YS, read-out: EC50 VZV (YS).
[18] abbreviates: read-out: EC50 HIV-1 (concentration required to inhibit HIV-induced giant cell formation by 50%), HIV-1, CEM cell cultures.

“Also recorded” adds a separate entry of the source. Like-named read-outs stand apart in the source and are kept apart here. Where only a bound is given, the exact number is not on record here.

Broadly, the CC50 is the concentration that lowers cell viability or growth by half. On to `CCCCc1ccc(CN2CCN(Cc3c(O)cc4c(c3O)-c3cc(ccc3O)C3NC(=O)C5NC(=O)C(CC(N)=O)NC(=O)C(NC(=O)C(CC(C)C)NC)C(O)c6ccc(c(Cl)c6)Oc6cc5cc(c6OC5OC(CO)C(O)C(O)C5OC5CC(C)(N)C(O)C(C)O5)Oc5ccc(cc5)C(OC5CC(C)(N)C(O)C(C)O5)C(NC3=O)C(=O)NC4C(=O)NC)CC2)cc1` (stereo not drawn) [Compound 5], for which the values for the IC50 in series [1], in series [2] and in series [7] were 40 ± 4 µM, 24 ± 0.4 µM and 17 ± 3 µM, respectively. Also, the CC50 is 28 µM in [3] (read-out: CC50 FCK, FCK cells) and 54 µM in series [6]. The “activity against FCV” value in series [4] is “active; also recorded: pronounced activity”. The EC50 is 5.4 µM in [4], 0.43 µM in series [5] (setting [14]), over 10 µM in [8] (setting [15]) and 13 µM in [9].
Take `CN(C)CCCNC(=O)C1NC(=O)C2NC(=O)C(NC(=O)C3NC(=O)C4NC(=O)C(Cc5ccc(c(Cl)c5)Oc5cc3cc(c5O)Oc3ccc(cc3Cl)C2O)NC(=O)C(N)c2ccc(O)c(c2)Oc2cc(O)cc4c2)c2ccc(O)c(c2)-c2c1cc(O)c(CN1CCN(Cc3ccc(-c4ccccc4)cc3)CC1)c2O` (stereo not drawn) [Compound 28]: the EC50 in [10] (setting [16]) is 2.5 µM; in series [10] (setting [17]) it was 2 µM; in series [4], over 50 µM; in series [5] (setting [18]), 3.5 ± 0.7 µM; in series [8] (setting [15]), 8.5 ± 2.1 µM; in series [9] it was 16 µM. Besides, the IC50 in [1] was over 500 µM; in series [2], 318 ± 256 µM; in [7] it was over 500 µM. For the same molecule, the CC50 in series [3] (read-out: CC50 FCK, FCK cells) is 21 µM; in series [6], over 100 µM; in series [12] (anti-VZV table), 105 µM. Further, the “MTC (HEL)” value in [11] (anti-VZV table) is recorded as “≧5-20 μM”.
Turning to `NCCCCCCNC(=O)C1NC(=O)C2NC(=O)C(NC(=O)C3NC(=O)C4NC(=O)C(Cc5ccc(c(Cl)c5)Oc5cc3cc(c5O)Oc3ccc(cc3Cl)C2O)NC(=O)C(N)c2ccc(O)c(c2)Oc2cc(O)cc4c2)c2ccc(O)c(c2)-c2c(O)cc(O)cc21` (stereo not drawn) [Compound 41], the EC50 was over 5 µM in [10] (setting [16]); 12 µM in series [10] (setting [17]); 21 µM in series [4]; 15 µM in [5] (setting [18]); 17.5 ± 3.5 µM in [8] (setting [15]); 44 µM in [9]. The IC50 in [1], in series [2] and in series [7] was over 500 µM throughout. Moreover, the CC50 in [3] (read-out: CC50 FCK, FCK cells) was over 50 µM; in series [6], over 100 µM; in [12] (anti-VZV table) it was 190 µM. The “MTC (HEL)” value in [11] (anti-VZV table) was “≧20-50 μM”.
With `COC(=O)C1NC(=O)C2NC(=O)C(NC(=O)C(NC(=O)OC(C)(C)C)c3cc(Oc4ccc(CC(NC(=O)OCc5ccccc5)C(=O)O)cc4Cl)c(O)c(c3)Oc3ccc(cc3Cl)C2O)c2ccc(O)c(c2)-c2c1cc(O)c(CNC1C3CC4CC(C3)CC1C4)c2O` (stereo not drawn) [Compound 53], the figures for the IC50 in series [1], in [2] and in [7] were 240 ± 13 µM, 95 ± 10 µM and 122 ± 13 µM, respectively. The CC50 in series [3] is at least 100 µM; in series [6], over 100 µM. The EC50 was 36 µM in [4], 17 ± 3.5 µM in series [5] (setting [18]), 11 ± 5.7 µM in series [8] (setting [15]) and 29 µM in series [9].
For `COC(=O)C1NC(=O)C2NC(=O)C(NC(=O)C(N)c3cc(Oc4ccc(CC(NC(=O)OCc5ccccc5)C(=O)O)cc4Cl)c(O)c(c3)Oc3ccc(cc3Cl)C2O)c2ccc(O)c(c2)-c2c1cc(O)c(CNC1C3CC4CC(C3)CC1C4)c2O` (stereo not drawn) [Compound 54], the figures for the IC50 in [1], in series [2] and in series [7] were over 250 µM, 181 ± 4 µM and over 250 µM, respectively. Also, the values for the CC50 in series [3] and in series [6] were over 50 µM and over 100 µM, respectively. Moreover, the EC50 in [4] turned out to be 19 µM; in [5] (setting [18]) it was 17 ± 3.5 µM; in series [8] (setting [15]) it was 37 ± 18 µM; in series [9], 47 µM.
Take `NC1Cc2ccc(c(Cl)c2)Oc2cc3cc(c2O)Oc2ccc(cc2Cl)C(O)C2NC(=O)C(NC(=O)C3NC(=O)C(c3cc(O)cc(Oc4cc(C5NC(=S)N(c6ccccc6)C5=O)ccc4O)c3)NC1=O)c1ccc(O)c(c1)-c1c(cc(O)c(CNC3C4CC5CC(C4)CC3C5)c1O)C(C(=O)O)NC2=O` (stereo not drawn) [Compound 55]: the IC50 is 242 ± 11 µM in series [1], 73 ± 24 µM in series [2] and at least 250 µM in series [7]. Besides, the CC50 in [3] and in series [6] was over 100 µM each time. Also, the EC50 in series [4] is 22 µM; in series [5] (setting [14]) it was 13 µM; in [8] (HIV-2(ROD), CEM cell cultures, read-out: EC50 against HIV-2) it was 17 µM; in series [9], 31 µM.
Turning to `CCCCc1ccc(CN2CCN(C(=O)C3NC(=O)C4NC(=O)C(NC(=O)C5NC(=O)C6NC(=O)C(Cc7ccc(c(Cl)c7)Oc7cc5cc(c7O)Oc5ccc(cc5Cl)C4O)NC(=O)C(N)c4ccc(O)c(c4)Oc4cc(O)cc6c4)c4ccc(O)c(c4)-c4c(O)cc(O)cc43)CC2)cc1` (stereo not drawn) [Compound 124], the EC50 in [10] (setting [16]) turned out to be 0.34 µM; in [10] (setting [17]), 0.22 µM; in [13] (read-out: EC50 CMV AD-169, CMV strain AD-169, HEL cell cultures), 2.4 µM; in [13] (read-out: EC50 CMV Davis, CMV strain Davis, HEL cell cultures), 3.2 µM; in [9], 15 µM. Further, the CC50 in [3] (read-out: CC50 FCK, FCK cells) was 17 µM; in series [6], over 100 µM; in [12] (anti-CMV table) it was 71 µM; in series [12] (anti-VZV table), 71 µM. Besides, the “anti-CMV activity” value in series [13] is listed as “anti-CMV activity”. Further, the “MTC (HEL)” value in series [11] (anti-CMV table) and in series [11] (anti-VZV table) was “≧5-100 μM” in each case.
Consider `CC(NC(=O)C1NC(=O)C2NC(=O)C(NC(=O)C3NC(=O)C4NC(=O)C(Cc5ccc(c(Cl)c5)Oc5cc3cc(c5O)Oc3ccc(cc3Cl)C2O)NC(=O)C(N)c2ccc(O)c(c2)Oc2cc(O)cc4c2)c2ccc(O)c(c2)-c2c(O)cc(O)cc21)C12CC3CC(CC(C3)C1)C2` (stereo not drawn) [Compound 160], for which the IC50 in series [1] turned out to be 106 µM; in series [2], 92 ± 5 µM; in [7], 97 ± 10 µM. Also, the CC50 in [3] (read-out: CC50 FCK, FCK cells) was 56 µM; in series [6], over 100 µM. For the same molecule, the EC50 in [4] was found to be 4.5 µM; in series [5] (setting [18]), 3.3 ± 1.4 µM; in series [8] (setting [15]) it was 7.5 ± 0.7 µM; in series [9], 27 µM.
As for `NC1C(=O)NC2Cc3ccc(c(Cl)c3)Oc3cc4cc(c3O)Oc3ccc(cc3Cl)C(O)C3NC(=O)C(NC(=O)C4NC(=O)C(NC2=O)c2cc(O)cc(c2)Oc2cc1ccc2O)c1ccc(O)c(c1)-c1c(O)cc(O)cc1C(C(=O)NCc1ccc(F)cc1)NC3=O` (stereo not drawn) [Compound 165], the values for the IC50 in series [1], in series [2] and in [7] were over 250 µM, 240 ± 15 µM and at least 250 µM, respectively. Also, the CC50 was 80 µM in series [3] (read-out: CC50 FCK, FCK cells) and over 100 µM in [6]. For the same molecule, the EC50 in [4] was 11 µM; in [5] (setting [18]) it was 9 ± 5.3 µM; in series [8] (setting [15]), 30 ± 7.1 µM; in series [9] it was 26 µM.
For `NC1C(=O)NC2Cc3ccc(c(Cl)c3)Oc3cc4cc(c3O)Oc3ccc(cc3Cl)C(O)C3NC(=O)C(NC(=O)C4NC(=O)C(NC2=O)c2cc(O)cc(c2)Oc2cc1ccc2O)c1ccc(O)c(c1)-c1c(O)cc(O)cc1C(C(=O)NCC12CC4CC(CC(C4)C1)C2)NC3=O` (stereo not drawn) [Compound 166], the IC50 in series [1] worked out at 125 ± 30 µM; in [2], 91 ± 2 µM; in series [7], 112 ± 2 µM. Besides, the CC50 was 49 µM in series [3] (read-out: CC50 FCK, FCK cells) and over 100 µM in series [6]. Besides, the EC50 in [4] stood at 8.5 µM; in series [5] (setting [18]), 1.8 ± 0.58 µM; in [8] (setting [15]), 7 µM; in series [9], 31 µM.
As to `NC1C(=O)NC2Cc3ccc(c(Cl)c3)Oc3cc4cc(c3O)Oc3ccc(cc3Cl)C(O)C3NC(=O)C(NC(=O)C4NC(=O)C(NC2=O)c2cc(O)cc(c2)Oc2cc1ccc2O)c1ccc(O)c(c1)-c1c(O)cc(O)cc1C(C(=O)N(C(=O)NC1CCCCC1)C1CCCCC1)NC3=O` (stereo not drawn) [Compound 167], the results for the IC50 in series [1], in series [2] and in [7] were 165 ± 34 µM, 130 ± 1 µM and 132 ± 9 µM, respectively. In addition, the CC50 in series [3] (read-out: CC50 FCK, FCK cells) is 62 µM; in [6], over 100 µM. The EC50 in series [4] was 7.7 µM; in [5] (setting [18]) it was 6 ± 2.6 µM; in series [8] (setting [15]), 10 ± 2.8 µM; in [9], 47 µM.
